Assay results reported in patent US20100029643A1 (ASTRAZENECA AB, priority 2006, published 2010).
One block for each compound: values may come before it.

Target: T1, Edg-1/S1P1 receptor (Homo sapiens, UniProt P21453)
T1 construct: expressed in transfected cells; host or cells: human osteogenic sarcoma U2OS cells: Edg-1 Transfluor U2OS WT Clone #37 (assay I), Edg-1 Transfluor U2OS Clone #3 (assay II)
Assay: In vitro cell based receptor activation assay - Transfluor assay (assay I or II; beta-arrestin GFP relocalization after S1P stimulation)
Details: for inhibition at 3.7 µM: at 3.70 μM (titrated from top concentration 100 μM); for inhibition at 3.3 µM: at 3.30 μM (run with this as top concentration)
Summary of the method: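 U2OS cells overexpressing S1P1 with a beta-arrestin-GFP construct were pre-incubated with compound for 15 min at room temperature, then stimulated with S1P for 45 min at 37 °C. In assay I, final S1P was 375 nM or 750 nM and compound was a 9-point 3-fold series from 100 μM, in 1% DMSO. Cells were fixed and Hoechst-stained, GFP relocalization was imaged, and EC50 values were fitted.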

[1] = at 3.50 μM (titrated from top concentration 10 μM)

T1 sequence (P21453 whole entry): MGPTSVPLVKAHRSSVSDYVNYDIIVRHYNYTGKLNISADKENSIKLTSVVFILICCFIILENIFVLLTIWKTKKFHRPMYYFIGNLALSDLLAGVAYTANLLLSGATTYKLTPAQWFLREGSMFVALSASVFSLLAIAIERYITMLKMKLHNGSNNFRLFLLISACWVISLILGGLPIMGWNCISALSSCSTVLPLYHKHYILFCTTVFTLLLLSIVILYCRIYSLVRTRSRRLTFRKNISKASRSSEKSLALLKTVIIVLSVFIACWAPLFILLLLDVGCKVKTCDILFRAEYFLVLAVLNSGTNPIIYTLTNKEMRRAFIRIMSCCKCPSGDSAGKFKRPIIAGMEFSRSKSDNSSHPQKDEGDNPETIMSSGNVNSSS

Compound: CCn1c([C@@H](C)NS(=O)(=O)c2ccc(CC#N)cc2)nc2ccc(C(F)(F)F)cc21 [Example 167, (R)-4-(cyanomethyl)-N-(1-(1-ethyl-6-(trifluoromethyl)-1H-benzo[d]imidazol-2-yl)ethyl)benzenesulfonamide]
inhibition at 3.5 µM [1]: 86%

Compound: CCn1c([C@@H](C)NS(=O)(=O)c2cccnc2)nc2ccc(C(F)(F)F)cc21 [Example 126, (R)—N-(1-(1-ethyl-6-(trifluoromethyl)-1H-benzo[d]imidazol-2-yl)ethyl)pyridine-3-sulfonamide]
inhibition at 3.5 µM [1]: 92.8%

Compound: CCn1c([C@@H](C)NS(=O)(=O)c2cnc(NN)c(Cl)c2)nc2ccc(C(F)(F)F)cc21 [Example 128, R-5-chloro-N-(1-(1-ethyl-6-(trifluoromethyl)-1H-benzo[d]imidazol-2-yl)ethyl)-6-hydrazinylpyridine-3-sulfonamide]
inhibition at 3.5 µM [1]: 94.5%

Compound: CCn1c(C2(NS(=O)(=O)c3ccc(F)cc3)CCC2)nc2ccc(C(F)(F)F)cc21 [Example 143, N-[1-(1-Ethyl-6-trifluoromethyl-1H-benzoimidazol-2-yl)-cyclobutyl]-4-fluoro-benzenesulfonamide]
inhibition at 3.5 µM [1]: 84.7%

Compound: CCn1c([C@@H](C)NS(=O)(=O)c2ccc(F)cc2)nc2ccc(C(F)(F)F)cc21 [Example 25, N-{(1R)-1-[1-Ethyl-6-(trifluoromethyl)-1H-benzimidazol-2-yl]ethyl}-4-fluorobenzenesulfonamide]
inhibition at 3.5 µM [1]: 90%

Compound: CCn1c([C@@H](C)NS(=O)(=O)c2ccc(NC(N)=O)cc2)nc2ccc(C(F)(F)F)cc21 [Example 112, (R)-N-(1-(1-Ethyl-6-(trifluoromethyl)-1H-benzo[d]imidazol-2-yl)ethyl)-4-ureidobenzenesulfonamide]
% inhibition [1]: [drawing 124] (R)-N-(1-(1-Ethyl-6- (trifluoromethyl)-1H- benzo[d]imidazol-2-yl)ethyl)- 4-ureidobenzenesulfonamide (Inactive at 3.50 μM)

Compound: CCn1c([C@@H](C)NS(=O)(=O)c2cccn2C)nc2ccc(C(F)(F)F)cc21 [Example 187, (R)—N-(1-(1-Ethyl-6-(trifluoromethyl)-1H-benzo[d]imidazol-2-yl)ethyl)-1-methyl-1H-pyrrole-2-sulfonamide]
inhibition at 3.5 µM [1]: 86.2%

Compound: CCn1c([C@@H](C)NS(=O)(=O)c2cncc(Cl)c2)nc2ccc(C(F)(F)F)cc21 [Example 129, R-5-chloro-N-(1-(1-ethyl-6-(trifluoromethyl)-1H-benzo[d]imidazol-2-yl)ethyl)pyridine-3-sulfonamide]
inhibition at 3.5 µM [1]: 90.3%

Compound: CCn1c([C@@H](C)NS(=O)(=O)c2c(F)cc(F)cc2F)nc2ccc(C(F)(F)F)cc21 [Example 51, N-{(1R)-1-[1-Ethyl-6-(trifluoromethyl)-1H-benzimidazol-2-yl]ethyl}-2,4,6-trifluorobenzenesulfonamide]
inhibition at 3.7 µM: 92.8%

Compound: CCCn1cc(S(=O)(=O)N[C@H](C)c2nc3ccc(C(F)(F)F)cc3n2CC)c(C)n1 [Example 53, N-{(1R)-1-[1-Ethyl-6-(trifluoromethyl)-1H-benzimidazol-2-yl]ethyl}-3-methyl-1-propyl-1H-pyrazole-4-sulfonamide]
inhibition at 3.7 µM: 84.5%

Compound: CCn1c([C@@H](C)NS(=O)(=O)c2ccc(OC)nc2)nc2ccc(C(F)(F)F)cc21 [Example 109, (R)-N-(1-(1-Ethyl-6-(trifluoromethyl)-1H-benzo[d]imidazol-2-yl)ethyl)-6-methoxypyridine-3-sulfonamide]
inhibition at 3.5 µM [1]: 95.6%

Compound: CCn1c([C@@H](C)NS(=O)(=O)c2cn(C)nc2C)nc2ccc(C(F)(F)F)cc21 [Example 41, N-{(1R)-1-[1-Ethyl-6-(trifluoromethyl)-1H-benzimidazol-2-yl]ethyl}-1,3-dimethyl-1H-pyrazole-4-sulfonamide]
inhibition at 3.7 µM: 61%

Compound: CCn1cc(S(=O)(=O)N[C@H](C)c2nc3ccc(C(F)(F)F)cc3n2CC)cn1 [Example 121, 1-ethyl-N-{(1R)-1-[1-Ethyl-6-(trifluoromethyl)-1H-benzimidazol-2-yl]ethyl}-1H-pyrazole-4-sulfonamide]
inhibition at 3.3 µM: 74%

Compound: CCn1c([C@@H](C)NS(=O)(=O)c2ccc(NC(C)=O)c(C)c2)nc2ccc(C(F)(F)F)cc21 [Example 29, N-{4-[({(1R)-1-[1-Ethyl-6-(trifluoromethyl)-1H-benzimidazol-2-yl]ethyl}amino)sulfonyl]-2-methylphenyl}acetamide]
inhibition at 3.7 µM: 21.8%

Compound: CCn1c([C@@H](C)NS(=O)(=O)c2ccc3nsnc3c2)nc2ccc(C(F)(F)F)cc21 [Example 46, N-{(1R)-1-[1-Ethyl-6-(trifluoromethyl)-1H-benzimidazol-2-yl]ethyl}-2,1,3-benzothiadiazole-5-sulfonamide]
inhibition at 3.7 µM: 89.8%

Compound: CCn1c([C@@H](C)NS(=O)(=O)c2ccc(Cl)cc2)nc2cnc(C(F)(F)F)cc21 [Example 147, (R)-4-Chloro-N-(1-(1-ethyl-6-(trifluoromethyl)-1H-imidazo[4,5-c]pyridin-2-yl)ethyl)benzenesulfonamide]
inhibition at 3.5 µM [1]: 95.9%

Compound: CCn1ncc(S(=O)(=O)N[C@H](C)c2nc3ccc(C(F)(F)F)cc3n2CC)c1C [Example 31, 1-Ethyl-N-{(1R)-1-[1-ethyl-6-(trifluoromethyl)-1H-benzimidazol-2-yl]ethyl}-5-mthyl-1H-pyrazole-4-sulfonamide]
inhibition at 3.7 µM: 78.6%

Compound: CCn1c([C@@H](C)NS(=O)(=O)c2ccncc2)nc2ccc(C(F)(F)F)cc21 [Example 127, (R)-N-(1-(1-Ethyl-6-(trifluoromethyl)-1H-benzo[d]imidazol-2-yl)ethyl)pyridine-4-sulfonamide]
inhibition at 3.5 µM [1]: 86.4%

Compound: CCCn1ncc(S(=O)(=O)N[C@H](C)c2nc3ccc(C(F)(F)F)cc3n2CC)c1C [Example 54, N-{(1R)-1-[1-Ethyl-6-(trifluoromethyl)-1H-benzimidazol-2-yl]ethyl}-5-methyl-1-propyl-1H-pyrazole-4-sulfonamide]
inhibition at 3.7 µM: 77.5%

Compound: CCn1c([C@@H](C)NS(=O)(=O)c2ccc(C#N)cc2)nc2ccc(C(F)(F)F)cc21 [Example 26, 4-Cyano-N-{(1R)-1-[1-ethyl-6-(trifluoromethyl)-1H-benzimidazol-2-yl]ethyl}benzenesulfonamide]
inhibition at 3.5 µM [1]: 87.4%

Compound: CCn1c([C@@H](C)NS(=O)(=O)C2=Cc3ccccc3CC2)nc2ccc(C(F)(F)F)cc21 [Example 119, M-{(1R)-1-[1-Ethyl-6-(trifluoromethyl)-1H-benzimidazol-2-yl]ethyl}-3,4-diyhydronaphthalene-2-sulfonamide]
inhibition at 3.3 µM: 71.7%

Compound: CCn1c([C@@H](C)NS(=O)(=O)c2cc[n+]([O-])cc2)nc2ccc(C(F)(F)F)cc21 [Example 165, (R)-4-(N-(1-(1-Ethyl-6-(trifluoromethyl)-1H-benzo[d]imidazol-2-yl)ethyl)sulfamoyl)pyridine 1-oxide]
inhibition at 3.5 µM [1]: 75.6%

Compound: CCn1c([C@@H](C)NS(=O)(=O)c2ccsc2)nc2ccc(C(F)(F)F)cc21 [Example 47, N-{(1R)-1-[1-Ethyl-6-(trifluoromethyl)-1H-benzimidazol-2-yl]ethyl}thiophene-3-sulfonamide]
inhibition at 3.7 µM: 89.6%

The next lines start with the values.

inhibition at 3.7 µM: 16.4%
EC50 (one or the other of the two Transfluor assays, Edg-1 Transfluor U2OS cells, S1P ligand): 10.3 µM
Compound: CC(C)Cn1c(C(C)NS(=O)(=O)c2ccc(Cl)cc2)nc2ccccc21 (centres unmarked) [Example 19, 4-Chloro-N-[1-(1-isobutyl-1H-benzimidazol-2-yl)ethyl]-benzenesulfonamide]

inhibition at 3.7 µM: 59.3%
Compound: CCn1c([C@@H](C)NS(=O)(=O)c2ccc(Cl)cc2)nc2cc(C3CC3)ccc21 [Example 84, 4-Chloro-N-[(1R)-1-(5-cyclopropyl-1-ethyl-1H-benzimidazol-2-yl)ethyl]benzenesulfonamide]

inhibition at 3.5 µM [1]: 94%
Compound: CCC(NS(=O)(=O)c1ccc(Cl)cc1)c1nc2ccccc2n1CC (centres unmarked) [Example 2, 4-Chloro-N-[1-(1-ethyl-1H-benzoimidazol-2-yl)propyl]-benzenesulfonamide]

inhibition at 3.7 µM: 66.4%
Compound: CCn1c(C(CC(C)C)NS(=O)(=O)c2ccc(Cl)cc2)nc2ccccc21 (centres unmarked) [Example 4, 4-Chloro-N-[1-(1-ethyl-1H-benzimidazol-2-yl)-3-methyl-butyl}benzenesulfonamide]

inhibition at 3.7 µM: 77.7%
Compound: CCn1c(C(Cc2ccc(F)cc2)NS(=O)(=O)c2ccc(Cl)cc2)nc2ccccc21 (centres unmarked) [Example 6]

inhibition at 3.5 µM [1]: 84.6%
Compound: CCn1c([C@H](C)NS(=O)(=O)c2ccc(Cl)cc2)nc2ccc(C(F)(F)F)cc21 [Example 100, 4-Chloro-N-{(1S)-1-[1-ethyl-6-(trifluoromethyl)-1H-benzimidazol-2-yl]ethyl}benzenesulfonamide]

inhibition at 3.7 µM: 73.2%
Compound: CCn1c(C(Cc2ccccc2)NS(=O)(=O)c2ccc(Cl)cc2)nc2ccccc21 (centres unmarked) [Example 5, 4-Chloro-N-[1-(1-ethyl-1H-benzimidazol-2-yl)-2-phenyl-ethyl]benzenesulfonamide]

inhibition at 3.7 µM: 50.6%
Compound: CCn1c([C@@H](C)NS(=O)(=O)c2ccc(Cl)cc2)nc2cc(OC(F)(F)F)ccc21 [Example 64, 4-Chloro-N-{(1R)-1-[1-ethyl-5-(trifluoromethoxy)-1H-benzimidazol-2-yl]ethyl}benzenesulfonamide]

inhibition at 3.5 µM [1]: 93.3%
Compound: CCn1c(C(C)NS(=O)(=O)c2ccc(Cl)cc2)nc2ncccc21 (centres unmarked) [Example 12, 4-Chloro-N-[1-(1-ethyl-1H-imidazo[4,5-b]pyridin-2-yl)-ethyl]-benzenesulfonamide]

inhibition at 3.5 µM [1]: 93.4%
Compound: CCn1c([C@@H](C)NS(=O)(=O)c2ccc(Cl)cc2)nc2c(F)cccc21 [Example 90, 4-Chloro-N-[(1R)-1-(1-ethyl-4-fluoro-1H-benzimidazol-2-yl)ethyl]benzenesulfonamide]

inhibition at 3.5 µM [1]: 85.2%
Compound: CCn1c([C@@H](C)NS(=O)(=O)c2ccc(Cl)cc2)nc2ccc(C(F)F)cc21 [Example 69, 4-Chloro-N-{(1R)-1-[6-(difluoromethyl)-1-ethyl-1H-benzimidazol-2-yl]ethyl}benzenesulfonamide]
